Assay results reported in US6664231B1, “Anti-fungal peptides” (priority 1993, dated 2003).
Square brackets hold non-standard residues; d marks the D form. Peptide text beside a SMILES is read from it. Phe(4-NH2) = Nc1ccc(C[C@H](N)C(=O)O)cc1; 1Nal = N[C@@H](Cc1cccc2ccccc12)C(=O)O; d2Nal = N[C@H](Cc1ccc2ccccc2c1)C(=O)O; Tle = CC(C)(C)[C@H](N)C(=O)O; Abu = CC[C@H](N)C(=O)O; Aib = CC(C)(N)C(=O)O; GABA = NCCCC(=O)O; βAla = NCCC(=O)O

What follows are compounds tested on C. albicans (CA-1, Strain SLU-1) (assay: Radial diffusion assay). Settings: pmoles of peptide added to well to achieve a 30 mm^2 zone, PROBIT analysis; crude or purified (P′) peptide.
Format: cell-based, Candida albicans
Method: In the radial diffusion assay procedures, the CA-1 cultures and peptide solutions were prepared as in the broth assay procedure described above. Ten mL of molten underlayer agarose comprising 3% Sabouraud Dextrose broth, 1% agarose (Pharmacia, Piscataway, N.J.), 0.02% Tween 20, and 10 mM sodium phosphate at pH 7.4, was added to polystyrene tubes and maintained in a 56° C. water bath until the addition of yeast. Tubes were cooled to approximately 45° C., yeast were added to give a final concentration of 1×10^6 CFU/mL, and the tubes were mixed again by inverting. The contents were poured into level square petri dishes and distributed evenly. […] A series of wells were punched into the hardened agarose using a sterile 3 mm punch attached to a vacuum apparatus.
Peptides to be assayed were 2-fold serially diluted in Dulbecco's PBS (D-PBS) starting from a concentration of approximately 1 mg/mL. Five μL of each dilution were added to each well and the plates were incubated at 37° C. for 3 hours. An overlayer of 10 mL of molten agarose comprising 6% Sabouraud Dextrose broth, 1% agarose, and 10 mM sodium phosphate, pH 7.4, (at approximately 45° C.) was then added and plates were incubated overnight at 37° C. Following this overnight incubation, a dilute Coomassie solution was poured into the plates and allowed to stain for 24 hours.
Clear zones of growth inhibition around each well were measured with calipers. The actual area of growth inhibition (mm^2) was calculated by subtracting the area of the well. Table 1 below sets out the results of the radial diffusion assays for tested peptides in terms of the number of picomoles (pmol) of peptide required to establish a 30 mm^2 area of growth inhibition calculated by PROBIT analysis (e.g., calculated from regression of the linear portion of log-concentration dose-response curve, log pmol/well vs. net area of inhibition).
`CC[C@H](C)[C@H](NC(=O)[C@H](CC(C)C)NC(=O)[C@H](Cc1c[nH]c2ccccc12)NC(=O)CNC(=O)[C@@H](NC(=O)[C@H](CCCCN)NC(=O)[C@H](CO)NC(=O)[C@@H](N)CCCCN)C(C)C)C(=O)N[C@@H](Cc1ccc(N)cc1)C(=O)N[C@@H](Cc1cccc2ccccc12)C(=O)N[C@@H](Cc1ccccc1)C(=O)N[C@@H](Cc1c[nH]cn1)C(=O)N[C@@H](CCCCN)C(=O)N[C@@H](CCCCN)C(N)=O` [XMP.235] (H-KSKVGWLI[Phe(4-NH2)][1Nal]FHKK-NH2) was tested, and the “C. albicans pmol/30 mm^2 zone” value was “b (No detectable activity up to 5 μg/well)”.
In the case of `CC[C@H](C)[C@H](NC(=O)[C@H](CC(C)C)NC(=O)[C@H](Cc1c[nH]c2ccccc12)NC(=O)[C@H](Cc1ccc(N)cc1)NC(=O)[C@@H](NC(=O)[C@H](CCCCN)NC(=O)[C@H](CO)NC(=O)[C@@H](N)CCCCN)C(C)C)C(=O)N[C@@H](CCC(N)=O)C(=O)N[C@@H](Cc1cccc2ccccc12)C(=O)N[C@@H](Cc1ccccc1)C(=O)N[C@@H](Cc1c[nH]cn1)C(=O)N[C@@H](CCCCN)C(=O)N[C@@H](CCCCN)C(N)=O` [XMP.236] (H-KSKV[Phe(4-NH2)]WLIQ[1Nal]FHKK-NH2), the “C. albicans pmol/30 mm^2 zone” value is reported as >2,631 pmol/30 mm^2 zone.
With `CC[C@H](C)[C@H](NC(=O)[C@H](CC(C)C)NC(=O)[C@H](Cc1c[nH]c2ccccc12)NC(=O)CNC(=O)[C@@H](NC(=O)[C@H](CCCCN)NC(=O)[C@H](CO)NC(=O)[C@@H](N)CCCCN)C(C)C)C(=O)N[C@@H](CCC(N)=O)C(=O)N[C@@H](Cc1cccc2ccccc12)C(=O)N[C@@H](Cc1c[nH]c2ccccc12)C(=O)N[C@@H](Cc1c[nH]cn1)C(=O)N[C@@H](CCCCN)C(=O)N[C@@H](CCCCN)C(N)=O` [XMP.237] (H-KSKVGWLIQ[1Nal]WHKK-NH2) the “C. albicans pmol/30 mm^2 zone” value was >2,777 pmol/30 mm^2 zone.
For `CC[C@H](C)[C@H](NC(=O)[C@H](CC(C)C)NC(=O)[C@H](Cc1c[nH]c2ccccc12)NC(=O)[C@H](Cc1ccc(N)cc1)NC(=O)[C@@H](NC(=O)[C@H](CCCCN)NC(=O)[C@H](CO)NC(=O)[C@@H](N)CCCCN)C(C)C)C(=O)N[C@@H](Cc1ccc(N)cc1)C(=O)N[C@@H](CC(C)C)C(=O)N[C@@H](Cc1ccccc1)C(=O)N[C@@H](Cc1c[nH]cn1)C(=O)N[C@@H](CCCCN)C(=O)N[C@@H](CCCCN)C(N)=O` [XMP.238] (H-KSKV[Phe(4-NH2)]WLI[Phe(4-NH2)]LFHKK-NH2), the “C. albicans pmol/30 mm^2 zone” value was 2,702 pmol/30 mm^2 zone.
For `CC[C@H](C)[C@H](NC(=O)[C@H](CC(C)C)NC(=O)[C@H](Cc1c[nH]c2ccccc12)NC(=O)CNC(=O)[C@@H](NC(=O)[C@H](CCCCN)NC(=O)[C@H](CO)NC(=O)[C@@H](N)CCCCN)C(C)C)C(=O)N[C@@H](Cc1ccc(N)cc1)C(=O)N[C@@H](CC(C)C)C(=O)N[C@@H](Cc1c[nH]c2ccccc12)C(=O)N[C@@H](Cc1c[nH]cn1)C(=O)N[C@@H](CCCCN)C(=O)N[C@@H](CCCCN)C(N)=O` [XMP.239] (H-KSKVGWLI[Phe(4-NH2)]LWHKK-NH2), the “C. albicans pmol/30 mm^2 zone” value was >2,802 pmol/30 mm^2 zone.
For `CC[C@H](C)[C@H](NC(=O)[C@H](CC(C)C)NC(=O)[C@H](Cc1c[nH]c2ccccc12)NC(=O)[C@H](Cc1ccc(N)cc1)NC(=O)[C@@H](NC(=O)[C@H](CCCCN)NC(=O)[C@H](CO)NC(=O)[C@@H](N)CCCCN)C(C)C)C(=O)N[C@@H](CCC(N)=O)C(=O)N[C@@H](CC(C)C)C(=O)N[C@@H](Cc1c[nH]c2ccccc12)C(=O)N[C@@H](Cc1c[nH]cn1)C(=O)N[C@@H](CCCCN)C(=O)N[C@@H](CCCCN)C(N)=O` [XMP.240] (H-KSKV[Phe(4-NH2)]WLIQLWHKK-NH2), the “C. albicans pmol/30 mm^2 zone” value was >2,802 pmol/30 mm^2 zone.
With `CC[C@H](C)[C@H](NC(=O)[C@H](CC(C)C)NC(=O)[C@@H](Cc1ccc2ccccc2c1)NC(=O)CNC(=O)[C@@H](NC(=O)[C@H](CCCCN)NC(=O)[C@H](CO)NC(=O)[C@@H](N)CCCCN)C(C)C)C(=O)N[C@@H](CC(C)C)C(=O)N[C@@H](CC(C)C)C(=O)N[C@@H](Cc1ccccc1)C(=O)N[C@@H](Cc1c[nH]cn1)C(=O)N[C@@H](CCCCN)C(=O)N[C@@H](CCCCN)C(N)=O` [XMP.242] (H-KSKVG[d2Nal]LILLFHKK-NH2) the “C. albicans pmol/30 mm^2 zone” value was 359 pmol/30 mm^2 zone.
`CC[C@H](C)[C@H](NC(=O)[C@H](CC(C)C)NC(=O)[C@@H](Cc1ccc2ccccc2c1)NC(=O)CNC(=O)[C@@H](NC(=O)[C@H](CCCCN)NC(=O)[C@H](CO)NC(=O)[C@@H](N)CCCCN)C(C)C)C(=O)N[C@@H](CCC(N)=O)C(=O)N[C@@H](CC(C)C)C(=O)N[C@@H](Cc1c[nH]c2ccccc12)C(=O)N[C@@H](Cc1c[nH]cn1)C(=O)N[C@@H](CCCCN)C(=O)N[C@@H](CCCCN)C(N)=O` [XMP.243] (H-KSKVG[d2Nal]LIQLWHKK-NH2) was tested, and the “C. albicans pmol/30 mm^2 zone” value was 716 pmol/30 mm^2 zone.
For `CC[C@H](C)[C@H](NC(=O)[C@H](CC(C)C)NC(=O)[C@@H](Cc1ccc2ccccc2c1)NC(=O)CNC(=O)[C@@H](NC(=O)[C@H](CCCCN)NC(=O)[C@H](CO)NC(=O)[C@@H](N)CCCCN)C(C)C)C(=O)N[C@@H](CC(C)C)C(=O)N[C@@H](CC(C)C)C(=O)N[C@@H](Cc1c[nH]c2ccccc12)C(=O)N[C@@H](Cc1c[nH]cn1)C(=O)N[C@@H](CCCCN)C(=O)N[C@@H](CCCCN)C(N)=O` [XMP.244] (H-KSKVG[d2Nal]LILLWHKK-NH2), the “C. albicans pmol/30 mm^2 zone” value was 859 pmol/30 mm^2 zone.
In the case of `CC[C@H](C)[C@H](NC(=O)[C@H](CC(C)C)NC(=O)[C@@H](C)NC(=O)CNC(=O)[C@@H](NC(=O)[C@H](CCCCN)NC(=O)[C@H](CO)NC(=O)[C@@H](N)CCCCN)C(C)C)C(=O)N[C@@H](CCC(N)=O)C(=O)N[C@@H](CC(C)C)C(=O)N[C@@H](Cc1ccccc1)C(=O)N[C@@H](Cc1c[nH]cn1)C(=O)N[C@@H](CCCCN)C(=O)N[C@@H](CCCCN)C(N)=O` [XMP.252] (H-KSKVG[dA]LIQLFHKK-NH2), the “C. albicans pmol/30 mm^2 zone” value is reported as 1,613 pmol/30 mm^2 zone.
In the case of `CC[C@H](C)[C@H](NC(=O)[C@H](CC(C)C)NC(=O)[C@H](NC(=O)CNC(=O)[C@@H](NC(=O)[C@H](CCCCN)NC(=O)[C@H](CO)NC(=O)[C@@H](N)CCCCN)C(C)C)C(C)C)C(=O)N[C@@H](CCC(N)=O)C(=O)N[C@@H](CC(C)C)C(=O)N[C@@H](Cc1ccccc1)C(=O)N[C@@H](Cc1c[nH]cn1)C(=O)N[C@@H](CCCCN)C(=O)N[C@@H](CCCCN)C(N)=O` [XMP.253] (H-KSKVG[dV]LIQLFHKK-NH2), the “C. albicans pmol/30 mm^2 zone” value is reported as 1,108 pmol/30 mm^2 zone.
`CC[C@H](C)[C@H](NC(=O)[C@H](CC(C)C)NC(=O)CCNC(=O)CNC(=O)[C@@H](NC(=O)[C@H](CCCCN)NC(=O)[C@H](CO)NC(=O)[C@@H](N)CCCCN)C(C)C)C(=O)N[C@@H](CCC(N)=O)C(=O)N[C@@H](CC(C)C)C(=O)N[C@@H](Cc1ccccc1)C(=O)N[C@@H](Cc1c[nH]cn1)C(=O)N[C@@H](CCCCN)C(=O)N[C@@H](CCCCN)C(N)=O` [XMP.254] (H-KSKVG[βAla]LIQLFHKK-NH2) was tested, and the “C. albicans pmol/30 mm^2 zone” value was 1,040 pmol/30 mm^2 zone.
For `CC[C@H](NC(=O)CNC(=O)[C@@H](NC(=O)[C@H](CCCCN)NC(=O)[C@H](CO)NC(=O)[C@@H](N)CCCCN)C(C)C)C(=O)N[C@@H](CC(C)C)C(=O)N[C@H](C(=O)N[C@@H](CCC(N)=O)C(=O)N[C@@H](CC(C)C)C(=O)N[C@@H](Cc1ccccc1)C(=O)N[C@@H](Cc1c[nH]cn1)C(=O)N[C@@H](CCCCN)C(=O)N[C@@H](CCCCN)C(N)=O)[C@@H](C)CC` [XMP.255] (H-KSKVG[Abu]LIQLFHKK-NH2), the “C. albicans pmol/30 mm^2 zone” value was 392 pmol/30 mm^2 zone.
For `CC[C@H](C)[C@H](NC(=O)[C@H](CC(C)C)NC(=O)CCCNC(=O)CNC(=O)[C@@H](NC(=O)[C@H](CCCCN)NC(=O)[C@H](CO)NC(=O)[C@@H](N)CCCCN)C(C)C)C(=O)N[C@@H](CCC(N)=O)C(=O)N[C@@H](CC(C)C)C(=O)N[C@@H](Cc1ccccc1)C(=O)N[C@@H](Cc1c[nH]cn1)C(=O)N[C@@H](CCCCN)C(=O)N[C@@H](CCCCN)C(N)=O` [XMP.256] (H-KSKVG[GABA]LIQLFHKK-NH2), the “C. albicans pmol/30 mm^2 zone” value was “b (No detectable activity up to 5 μg/well)”.
`CC[C@H](C)[C@H](NC(=O)[C@H](CC(C)C)NC(=O)C(C)(C)NC(=O)CNC(=O)[C@@H](NC(=O)[C@H](CCCCN)NC(=O)[C@H](CO)NC(=O)[C@@H](N)CCCCN)C(C)C)C(=O)N[C@@H](CCC(N)=O)C(=O)N[C@@H](CC(C)C)C(=O)N[C@@H](Cc1ccccc1)C(=O)N[C@@H](Cc1c[nH]cn1)C(=O)N[C@@H](CCCCN)C(=O)N[C@@H](CCCCN)C(N)=O` [XMP.257] (H-KSKVG[Aib]LIQLFHKK-NH2) was tested, and the “C. albicans pmol/30 mm^2 zone” value was 1,321 pmol/30 mm^2 zone.
In the case of `CC[C@H](C)[C@H](NC(=O)[C@H](CC(C)C)NC(=O)[C@@H](NC(=O)CNC(=O)[C@@H](NC(=O)[C@H](CCCCN)NC(=O)[C@H](CO)NC(=O)[C@@H](N)CCCCN)C(C)C)C(C)(C)C)C(=O)N[C@@H](CCC(N)=O)C(=O)N[C@@H](CC(C)C)C(=O)N[C@@H](Cc1ccccc1)C(=O)N[C@@H](Cc1c[nH]cn1)C(=O)N[C@@H](CCCCN)C(=O)N[C@@H](CCCCN)C(N)=O` [XMP.258] (H-KSKVG[Tle]LIQLFHKK-NH2), the “C. albicans pmol/30 mm^2 zone” value is reported as 880 pmol/30 mm^2 zone.
